Experimental data from ChEMBL document CHEMBL1201862, “PubChem BioAssay data set” (2004).
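Test compounds were applied to cells in 96-well plates for 48 hours at 5 doses. The concentration for 50% growth inhibition is given as GI50.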 Active and inactive are the calls of the source. Cut-off read from the data, not from the text of the source: active = GI50 up to about 1.1 µM and inactive = higher.

Experiments:
Assay in all cases: NCI anticancer screen, dose series, 48 h
ACHN = system: ACHN
MDA-N = system: MDA-N
TK-10 = system: TK-10
CAKI-1 = system: CAKI-1
SK-OV-3 = system: SK-OV-3
M14 = system: M14
UO-31 = system: UO-31
MCF7 = system: MCF7
HOP-92 = system: HOP-92
SK-MEL-28 = system: SK-MEL-28
T47D = system: T47D
HL-60 = system: HL-60
RPMI-8226 = system: RPMI-8226
OVCAR-3 = system: OVCAR-3
786-0 = system: 786-0
OVCAR-5 = system: OVCAR-5
NCI-H522 = system: NCI-H522
SK-MEL-2 = system: SK-MEL-2
NCI/ADR-RES = system: NCI/ADR-RES
A498 = system: A498

Measured: GI50

C=C1C(=O)O[C@@H]2C[C@@]3(C)CCC[C@H](C)C3=C[C@H]12 [HELENINE]
inactive: ACHN 10 µM | MDA-N 4.66 µM | TK-10 2.77 µM | CAKI-1 5.33 µM | SK-OV-3 22 µM | M14 3.08 µM | UO-31 4.95 µM | MCF7 4.58 µM | HOP-92 2.43 µM | SK-MEL-28 8 µM | T47D 2.64 µM | HL-60 1.98 µM | RPMI-8226 1.76 µM | OVCAR-3 6.89 µM | 786-0 3.53 µM | OVCAR-5 17.5 µM | NCI-H522 3.18 µM | SK-MEL-2 3.24 µM | NCI/ADR-RES 7.74 µM | A498 12.4 µM
